Two compounds from patent publication US8779002B2, “Methods for treating a variety of diseases and conditions, and compounds useful therefor” (Salk Institute for Biological Studies, priority 2007, dated 2014) can be followed below.

Where two headings read alike, the source gives them in different places.

For one assay, the system named is HT22 cells. Nature of the assay: HT22 oxidative glutamate toxicity (oxytosis) assay. It is filed as cell-based, mouse. The conditions noted are these: for EC50: Mus musculus, HT-22. As to the method: FIG. 1D illustrates the results of an oxidative stress assay. HT22 cells were treated with 5 mM glutamate and different concentrations of two versions of curcumin derivatives. Cell viability was measured 24 hr later by the MTT assay (J. B. Davis and P. Maher, Protein kinase C activation inhibits glutamate-induced cytotoxicity in a neuronal cell line. Brain Res. 652 (1994) 169-173). Legend for FIG. 1A, FIG. 1B and FIG. 1D: x-x, Cmpd CNB-001, o-o, Cmpd J147.
Similar toxicity assays as described above are also conducted with invention compounds using HT22 cells in an assay for oxidative stress. After exposure with 1 mM, 2 mM, 2.5 mM, or 5 mM glutamate, cell viability is determined with the MTT assay.
HT22 hippocampal neurons are treated with 5 mM glutamate and increasing concentrations of invention compounds. Cell viability is measured 24 hr later by the MTT assay (Davis and Maher, Brain Res. 652:169-173 (1994)).

For a further assay, the system named is Amyloid. Description: Extracellular amyloid toxicity (cell culture). It is filed as cell-based.
Another assay has as its system Cortical Nerve. Description: In vitro ischemia, cortical nerve. In kind it is cell-based. Also noted: key: + = positive result or enzyme activation.
The subject of the next assay is CaM Kinase II alpha. Description: CaM Kinase II activation. It is filed as cell-based. Set-up: key: + = positive result or enzyme activation. As to the method:
Invention compounds have the ability to activate CaM Kinase II alpha, a key enzyme involved in memory formation.
To evaluate the ability of a test compound to activate CaM Kinase II alpha, HT22 hippocampal neurons or one week old cortical neurons from embryonic 18 day rats can be prepared according to published procedures (e.g., Soucek et al., Neuron 39:43-56 (2003) and Li et al., Neuron 19:453-463 (1997)). Thus, for example, suitable cells can be treated with 1-2 μM of an exemplary invention compound for a suitable amount of time (e.g., 15, 30, 60 or 120 minutes).
Cells are then lysed and applied to a suitable gel for separation (e.g., P81 phosphocellulose paper, polyacrylamide gel containing SDS, and the like). CaMKII activity can then be assayed using an antibody that recognizes phosphothreonine from both the alpha and beta chains of CaM Kinase II. Invention compounds promote an increase in CaMKII activity of 10% or greater.

Another assay deals with Wistar rats. Description: Novel object recognition task in rats. In kind it is in vivo, rat. The conditions noted are these: for Recognition index, Mean: Wistar rats, n=8. As to the method:
FIG. 6 illustrates the effect of galantamine, compounds CNB-001, J147, SK186 and SKI 87 on object recognition task in Wistar rats. The data represent mean±SEM. *p<0.05 compared with the vehicle control.
This model is based on the greater spontaneous exploration of a novel object, compared with a familiar object, shown by rodents (see Ennaceur and Delacour in Behav. Brain Res. 31:47 (1988)). Male Wister rats are assessed for cognitive ability in a test apparatus comprising an open-field arena placed in a sound-attenuated room under dimmed lighting. Images of the open-field are captured by digital camera, and viewed on a monitor in an adjoining room. Each rat is subjected to the procedure separately and care is taken to remove any olfactory/taste cues by cleaning the arena and test objects with alcohol between trials and rats.
Adult male Wistar rats were employed in all rat studies. Animals were placed in the experimental rooms at postnatal day 80 and assigned unique identification numbers (tail marked). Pairs were housed in polycarbonate cages with filter tops and acclimated for 3 days prior to commencing any studies. Animals were maintained in a 12 hour light/dark cycle with room temperature maintained at 22±2° C. with a relative humidity maintained approximately 50%. Food and water were provided ad libitum.
All animals were examined, handled, and weighed for a further two days prior to initiation of the study to assure adequate health and suitability and to minimize non-specific stress associated with manipulation. Each animal was randomly assigned across the treatment groups and balanced by cage numbers. The novel object recognition experiment was performed during the animal's light cycle phase. Drug treatments were balanced across days and animals were only used once
The following compounds were used for this study—Reference compound (Galantamine; 3 mg/kg) was dissolved in 0.9% saline and administered i.p. 1 hour pre-test at a dose volume of 1 ml/kg, and all test compounds were handled in solution, and were kept at −80° C. until use. All compounds were administered orally 60 min prior to training at a volume of 1 ml/kg body weight.
Following a 5-minute habituation period, each rat was placed into the test arena in the presence of two identical objects (plastic shapes). Each rat was placed facing the same direction at the same position in the arena, and the time spent actively exploring the objects during a 5-minute test period (T1) was recorded. The rat was returned to its home cage between tests. After 24 hours, each rat was again placed in the test arena for 5 minutes (T2) in the presence of one of the familiar objects and a novel object, and the time spent exploring both objects was again recorded. The presentation order and position of the objects (left/right) was randomized between rats to prevent bias from order or place preference. A preference index for each object, the ratio of the time spent exploring either the familiar object or the novel object over the total time spent exploring both objects (during retention session T2) was used to measure cognitive function.
Data were analyzed by a one-way analysis of variance (ANOVA) followed by post-hoc comparisons with Fisher Tests when appropriate. An effect was considered significant if p<0.05. Data in the following tables are presented as the mean and standard error to the mean.

The mark [1] stands for this setting: Cell Culture (Table 2), read-out: Oxidative Glutamate Toxicity.
The mark [2] stands for this setting: 5 mg/kg orally 60 min prior to training.
Setting [3] is: 10 mg/kg orally 60 min prior to training.
[4] abbreviates: 25 mg/kg orally 60 min prior to training.

Regarding `COc1cc(/C=C/c2cc(/C=C/c3ccc(O)c(OC)c3)n(-c3ccccc3)n2)ccc1O` [CNB-001], the EC50 in the assay with HT22 cells (setting [1]) and with Amyloid was 500 nM throughout. For the same compound, the “HT22 cells that live” value in the assay with HT22 cells (glutamate, in the presence of Cmpd CNB-001 at 1 μM) is recorded as “over 90%”. For the same compound, the “In Vitro Ischemia, Cortical Nerve” value in the assay on Cortical Nerve is on record as “+”. The “CaMKinase II” value in the assay with CaM Kinase II alpha is “+”. Also, the results for the “Recognition index, Mean” value in the assay on Wistar rats (setting [2]), in the assay on Wistar rats (setting [3]) and with Wistar rats (setting [4]) were 63.663, 77.964 and 45.226, respectively. Moreover, the “Effect on recognition index” value in the assay with Wistar rats (10 mg/kg, versus vehicle, p<0.05) is recorded as “significantly increased”. Besides, the “Fisher's PLSD for Recognition index, Mean Diff. (*vehicle, treatment)” value is given as −11.741 in the assay on Wistar rats (vehicle versus 5 mg/kg oral), −26.042 in the assay on Wistar rats (vehicle versus 10 mg/kg oral) and 6.697 with Wistar rats (vehicle versus 25 mg/kg oral).
As to `COc1cccc(/C=N/N(C(=O)C(F)(F)F)c2ccc(C)cc2C)c1` [Compound J147], the EC50 with HT22 cells (setting [1]) was 5 nM; with HT22 cells (HT22 cells, following 5 mM glutamate exposure, MTT, read-out: EC50) it was roughly 5 nM; in the assay on HT22 cells (Oxidative glutamate toxicity (oxytosis), read-out: HT-22 EC50) it was 6 nM; in the assay on Amyloid, 10 nM. Further, the “In Vitro Ischemia, Cortical Nerve” value in the assay on Cortical Nerve is recorded as “+”. Moreover, the “CaMKinase II” value in the assay on CaM Kinase II alpha is “+”. Further, the “Recognition index, Mean” value with Wistar rats (setting [2]) is recorded as 63.053; with Wistar rats (setting [3]), 54.213; with Wistar rats (setting [4]), 51.372. Further, the “Fisher's PLSD for Recognition index, Mean Diff. (*vehicle, treatment)” value is recorded as −11.130 with Wistar rats (vehicle versus 5 mg/kg oral), −2.291 in the assay with Wistar rats (vehicle versus 10 mg/kg oral) and “.550” in the assay with Wistar rats (vehicle versus 25 mg/kg oral).
